PMC6277767, “Broad and Region-Specific Impacts of the Synthetic Cannabinoid CP 55,940 in Adolescent and Adult Female Mouse Brains” (Frontiers in Molecular Neuroscience, 2018)

Test system: CD1 female mouse brain lipidome
Assay: Brain-region lipid levels (HPLC/MS/MS lipidomics) 2 h after single i.p. 3 mg/kg CP 55,940 vs vehicle
Assay type: in vivo
Procedure: The Bloomington Institutional Animal Care and Use Committee of Indiana University reviewed and approved the animal procedures. Female mice from the CD1 strain were utilized to match our study examining THC’s effects on the brain lipidome ([Leishman et al., 2018]). Mice were given a single i.p. injection of either 3 mg/kg CP or 1:1:18 cremophor:ethanol:saline vehicle (please refer to the section “3 mg/kg CP Is Relevant for Synthetic Cannabinoid Abuse and Has Stronger Effects on the Female Mouse Brain Lipidome During Adolescence” for a justification of dose and use of female mice). Three different age groups were given injections: PND 35 and PND 50 adolescents, and adult mice (PND 113). At least eight mice in each age group received CP and at least eight received vehicle. Matching the THC study time course ([Leishman et al., 2018]), mice were sacrificed via rapid decapitation 2 h after injection. Brains were immediately removed and flash-frozen in liquid nitrogen, and then stored at -80°C until dissections were performed. Brains were dissected on an ice-cold dissection plate into the following regions: STR, HIPP, CER, THAL, CTX, HYP, MID, and STEM. These abbreviations for these brain areas will be used exclusively when discussing the results generated by these specific dissections. Each dissected area was immediately placed in liquid nitrogen and then stored at -80°C until used for lipid extraction.
Tissue extracts were performed as previously described ([Bradshaw et al., 2006]; [Stuart et al., 2013]; [Raboune et al., 2014]; [Leishman et al., 2016a],[b], [2017], [2018]). First, samples were shock frozen in liquid nitrogen, weighed, and transferred to a centrifuge tube. The mass of the largest sample was multiplied by 50 to determine how many milliliters of HPLC-grade methanol (Fisher, Fair Lawn, NJ, United States) to add. Then, samples were spiked with 500 pmol deuterium-labeled NAGly (d8NAGly; Cayman Chemical, Ann Arbor, MI, United States). Samples were placed on ice in darkness for 2 h then individually homogenized and centrifuged at 19,000 × g for 20 min at 20°C. Supernatants were diluted with HPLC water (purified in house) to make a solution of 75% water, 25% supernatant. Lipids were partially purified on C18 solid phase extraction columns (Agilent, Palo Alto, CA, United States). A series of four elutions with 1.5 mL of 60%, 75%, 85%, and 100% methanol were collected ([Stuart et al., 2013]; [Leishman et al., 2016a],[b], [2018]).
As previously described ([Bradshaw et al., 2006]; [Tan et al., 2006]; [Smoum et al., 2010]; [Stuart et al., 2013]; [Tortoriello et al., 2013]; [Raboune et al., 2014]; [Leishman et al., 2016a],[b], [2017], [2018]), samples were analyzed using an Applied Biosystems API 3000 triple quadrupole mass spectrometer with electrospray ionization (Foster City, CA, United States). Using an Agilent XDB-C18 reversed phase analytical column and optimized mobile phase gradients, 20 μL from each elution were chromatographed. Two Shimadzu 10ADvp pumps (Columbia, MD, United States) provided the pressure for gradient elution. Mobile phase A: 20% methanol, 80% water (v/v) and 1 mM ammonium acetate (Sigma, St. Louis, MO, United States). Mobile phase B: 100% methanol, 1 mM ammonium acetate. Every method run began with 0% mobile phase B, reached 100% mobile phase B flowing at 0.2 mL/min, and gradually returned to 0% mobile phase B.
This screening library will be referred to as the lipidome when discussing data from this study. HPLC/MS/MS data were analyzed using Analyst software (Applied Biosystems) ([Bradshaw et al., 2006]; [Tan et al., 2006]; [Stuart et al., 2013]; [Tortoriello et al., 2013]; [Raboune et al., 2014]; [Leishman et al., 2016a],[b], [2017], [2018]). Chromatograms (Supplementary Figure 3) were generated by determining the retention time of analytes from the analytical column with a [M-1] or [M+1] parent peak and a fragmentation peak corresponding to the programmed values. […]

[1] = striatum, adult, 3 mg/kg CP 55,940, one-way ANOVA p .007
[2] = striatum, adult, 3 mg/kg CP 55,940, one-way ANOVA p .015
[3] = striatum, adult, 3 mg/kg CP 55,940, one-way ANOVA p .017
[4] = striatum, adult, 3 mg/kg CP 55,940, one-way ANOVA p .019
[5] = striatum, adult, 3 mg/kg CP 55,940, one-way ANOVA p .043
[6] = striatum, adult, 3 mg/kg CP 55,940, one-way ANOVA p .071
[7] = striatum, adult, 3 mg/kg CP 55,940, one-way ANOVA p .075
[8] = striatum, PND 35, 3mg/kg CP 55,940
[9] = thalamus, PND 50, 3 mg/kg CP 55,940

SMILES: CCCCCCC(C)(C)c1ccc([C@@H]2C[C@H](O)CC[C@H]2CCCO)c(O)c1 [CP 55,940]
- N-docosahexaenoyl ethanolamine, Direction (relative to Veh) [1]: ↓
- N-docosahexaenoyl ethanolamine, Magnitude (x Veh level) [1]: 0.75 x Veh level
- N-linoleoyl ethanolamine, Direction (relative to Veh) [2]: ↓
- N-linoleoyl ethanolamine, Magnitude (x Veh level) [2]: 0.68 x Veh level
- N-arachidonoyl ethanolamine, Direction (relative to Veh) [3]: ↓
- N-arachidonoyl ethanolamine, Magnitude (x Veh level) [3]: 0.66 x Veh level
- Arachidonic acid, Direction (relative to Veh) [4]: ↓
- Arachidonic acid, Magnitude (x Veh level) [4]: 0.87 x Veh level
- N-oleoyl ethanolamine, Direction (relative to Veh) [5]: ↓
- N-oleoyl ethanolamine, Magnitude (x Veh level) [5]: 0.65 x Veh level
- N-oleoyl leucine Direction (relative to Veh) [5]: ↑
- N-oleoyl leucine Magnitude (x Veh level) [5]: 1.20 x Veh level
- 2-arachidonoyl glycerol, Direction (relative to Veh) [6]: ↓
- 2-arachidonoyl glycerol, Magnitude (x Veh level) [6]: 0.78 x Veh level
- N-palmitoyl serine, Direction (relative to Veh) [7]: ↓
- N-palmitoyl serine, Magnitude (x Veh level) [7]: 0.79 x Veh level
- 2-arachidonoyl glycerol: Direction (relative to Veh) [8]: ↓
- 2-arachidonoyl glycerol: Magnitude (x Veh level) [8]: 0.70 x Veh level
- 2-linoleoyl glycerol: Direction (relative to Veh) [8]: ↓
- 2-linoleoyl glycerol: Magnitude (x Veh level) [8]: 0.57 x Veh level
- 2-oleoyl glycerol: Direction (relative to Veh) [8]: ↓
- 2-oleoyl glycerol: Magnitude (x Veh level) [8]: 0.86 x Veh level
- N-arachidonoyl GABA: Direction (relative to Veh) [8]: ↓
- N-arachidonoyl GABA: Magnitude (x Veh level) [8]: 0.66 x Veh level
- N-arachidonoyl alanine: Direction (relative to Veh) [8]: ↓
- N-arachidonoyl alanine: Magnitude (x Veh level) [8]: 0.77 x Veh level
- N-arachidonoyl glycine: Direction (relative to Veh) [8]: ↓
- N-arachidonoyl glycine: Magnitude (x Veh level) [8]: 0.87 x Veh level
- N-arachidonoyl phenylalanine: Direction (relative to Veh) [8]: ↓
- N-arachidonoyl phenylalanine: Magnitude (x Veh level) [8]: 0.83 x Veh level
- N-arachidonoyl serine: Direction (relative to Veh) [8]: ↓
- N-arachidonoyl serine: Magnitude (x Veh level) [8]: 0.64 x Veh level
- N-arachidonoyl taurine: Direction (relative to Veh) [8]: ↓
- N-arachidonoyl taurine: Magnitude (x Veh level) [8]: 0.91 x Veh level
- N-arachidonoyl tyrosine: Direction (relative to Veh) [8]: ↓
- N-arachidonoyl tyrosine: Magnitude (x Veh level) [8]: 0.77 x Veh level
- N-docosahexaenoyl GABA: Direction (relative to Veh) [8]: ↓
- N-docosahexaenoyl GABA: Magnitude (x Veh level) [8]: 0.68 x Veh level
- N-docosahexaenoyl alanine: Direction (relative to Veh) [8]: ↓
- N-docosahexaenoyl alanine: Magnitude (x Veh level) [8]: 0.72 x Veh level
- N-docosahexaenoyl ethanolamine: Direction (relative to Veh) [8]: ↓
- N-docosahexaenoyl ethanolamine: Magnitude (x Veh level) [8]: 0.74 x Veh level
- N-docosahexaenoyl leucine: Direction (relative to Veh) [8]: ↑
- N-docosahexaenoyl leucine: Magnitude (x Veh level) [8]: 1.46 x Veh level
- N-docosahexaenoyl serine: Direction (relative to Veh) [8]: ↓
- N-docosahexaenoyl serine: Magnitude (x Veh level) [8]: 0.68 x Veh level
- N-oleoyl GABA: Direction (relative to Veh) [8]: ↓
- N-oleoyl GABA: Magnitude (x Veh level) [8]: 0.76 x Veh level
- N-oleoyl alanine: Direction (relative to Veh) [8]: ↓
- N-oleoyl alanine: Magnitude (x Veh level) [8]: 0.89 x Veh level
- N-oleoyl ethanolamine: Direction (relative to Veh) [8]: ↓
- N-oleoyl ethanolamine: Magnitude (x Veh level) [8]: 0.60 x Veh level
- N-oleoyl glycine: Direction (relative to Veh) [8]: ↓
- N-oleoyl glycine: Magnitude (x Veh level) [8]: 0.88 x Veh level
- N-palmitoyl ethanolamine: Direction (relative to Veh) [8]: ↓
- N-palmitoyl ethanolamine: Magnitude (x Veh level) [8]: 0.72 x Veh level
- N-palmitoyl leucine: Direction (relative to Veh) [8]: ↑
- N-palmitoyl leucine: Magnitude (x Veh level) [8]: 1.17 x Veh level
- N-palmitoyl valine: Direction (relative to Veh) [8]: ↑
- N-palmitoyl valine: Magnitude (x Veh level) [8]: 1.68 x Veh level
- N-stearoyl alanine: Direction (relative to Veh) [8]: ↓
- N-stearoyl alanine: Magnitude (x Veh level) [8]: 0.90 x Veh level
- N-stearoyl leucine: Direction (relative to Veh) [8]: ↓
- N-stearoyl leucine: Magnitude (x Veh level) [8]: 0.81 x Veh level
- N-stearoyl serine: Direction (relative to Veh) [8]: ↓
- N-stearoyl serine: Magnitude (x Veh level) [8]: 0.86 x Veh level
- N-stearoyl valine: Direction (relative to Veh) [8]: ↑
- N-stearoyl valine: Magnitude (x Veh level) [8]: 1.43 x Veh level
- PGE2: Direction (relative to Veh) [8]: ↑
- PGE2: Magnitude (x Veh level) [8]: 1.25 x Veh level
- PGF2α: Direction (relative to Veh) [8]: ↑
- PGF2α: Magnitude (x Veh level) [8]: 1.30 x Veh level
- 2-arachidonoyl glycerol: Direction (relative to Veh) [9]: ↓
- 2-arachidonoyl glycerol: Magnitude (x Veh level) [9]: 0.84 x Veh level
- 2-linoleoyl glycerol: Direction (relative to Veh) [9]: ↓
- 2-linoleoyl glycerol: Magnitude (x Veh level) [9]: 0.68 x Veh level
- 2-oleoyl glycerol: Direction (relative to Veh) [9]: ↓
- 2-oleoyl glycerol: Magnitude (x Veh level) [9]: 0.78 x Veh level
- 6-ketoPGF1α: Direction (relative to Veh) [9]: ↑
- 6-ketoPGF1α: Magnitude (x Veh level) [9]: 1.52 x Veh level
- Arachidonic acid: Direction (relative to Veh) [9]: ↓
- Arachidonic acid: Magnitude (x Veh level) [9]: 0.77 x Veh level
- Linoleic acid: Direction (relative to Veh) [9]: ↓
- Linoleic acid: Magnitude (x Veh level) [9]: 0.73 x Veh level
- N-arachidonoyl GABA: Direction (relative to Veh) [9]: ↓
- N-arachidonoyl GABA: Magnitude (x Veh level) [9]: 0.68 x Veh level
- N-arachidonoyl ethanolamine: Direction (relative to Veh) [9]: ↓
- N-arachidonoyl ethanolamine: Magnitude (x Veh level) [9]: 0.85 x Veh level
- N-arachidonoyl glycine: Direction (relative to Veh) [9]: ↓
- N-arachidonoyl glycine: Magnitude (x Veh level) [9]: 0.63 x Veh level
- N-arachidonoyl phenylalanine: Direction (relative to Veh) [9]: ↓
- N-arachidonoyl phenylalanine: Magnitude (x Veh level) [9]: 0.51 x Veh level
- N-arachidonoyl taurine: Direction (relative to Veh) [9]: ↓
- N-arachidonoyl taurine: Magnitude (x Veh level) [9]: 0.88 x Veh level
- N-arachidonoyl tyrosine: Direction (relative to Veh) [9]: ↓
- N-arachidonoyl tyrosine: Magnitude (x Veh level) [9]: 0.78 x Veh level
- N-docosahexaenoyl GABA: Direction (relative to Veh) [9]: ↓
- N-docosahexaenoyl GABA: Magnitude (x Veh level) [9]: 0.70 x Veh level
- N-linoleoyl GABA: Direction (relative to Veh) [9]: ↓
- N-linoleoyl GABA: Magnitude (x Veh level) [9]: 0.57 x Veh level
- N-palmitoyl leucine: Direction (relative to Veh) [9]: ↑
- N-palmitoyl leucine: Magnitude (x Veh level) [9]: 1.27 x Veh level
